Laboratory results from patent US10798942B2, “Abiotic stress tolerance” (SYNGENTA PARTICIPATIONS AG, priority 2016, dated 2020).

Legend:
rice plants [1] = assay: Field trials 2012-2015: tolerance of rice plants to heat stress (eleven trials); type: in vivo, Oryza sativa L.
Description: Field trials were setup during the hot season in India to test the effect of treatment with the compound of formula (Ia) on tolerance of rice plants to heat stress.
Trials were conducted in 2012, 2013, 2014, and 2015 in the Tamil Nadu rice production area (India) at the following sites: Kelamoor (lat. 12.42, long. 79.81), Kokkur (lat. 11.02, long. 79.32), Nachinargudi (lat. 11.01, long. 79.3), Velamoor (lat. 12.41, long. 79.8), Kumbakonam (lat. 10.97, long. 79.42) and Ramapuram (lat. 12.43, long. 79.83). The test sites had similar soil chemical properties, with an average soil pH of 6.6.
Rice (Oryza sativa L.) of the local varieties ADT43, ADT45 and NK5251 were mechanically transplanted at four plants per hill with a plant spacing of 16 cm and a row spacing of 30 cm. All trials were performed in good level of water management. Fertilizer was applied in accordance with the best local practice across the trial area.
Commercial treated seeds (no neonicotinoids as seed treatments) were used. Weed control was according to the best local practice in order to provide excellent weed control. Foliar fungicides and insecticides were applied according to common practice (no products that contain neonicotinoids or strobilurins).
The trial design was a randomized bloc design. Plot size was 40 m^2 (4 m width [12 rows] by 10 m row length). Each trial had four replicates. In total, eleven trials were conducted.
The compound of formula (Ia) was applied at a rate of 10 g ai/ha with small-plot hand-held boom sprayer. Application of the compound was as broadcast foliar spray in close proximity to leaf/canopy surface (25-40 cm distance from the crop). The used spray volumes were between 250 L/ha and 500 L/ha. Application was done either at panicle initiation (BBCH 30), at panicle formation (BBCH 32), at spikelet differentiation (BBCH 35), at meiosis (BBCH 39) or at heading (BBCH 51). In some experiments, the compound was applied twice (2×10 g ai/ha) at consecutive growth stages (i.e., BBCH 30+32, BBCH 32+35, BBCH 35+39, and BBCH 39+51).
Temperature was recorded nearby the trial sites. During and up to 14 days after the critical growth stages (i.e. from panicle initiation until heading) the mean daily minimum temperature was 25.1° C. (in the range of 22.6° C. to 27.1° C.) and the mean daily maximum temperature was 35.5° C. (in the range of 29.0 to 38.9° C.).
Tolerance to heat stress was assessed by measuring the following yield components: number of panicles per area, number of grains per panicle, percentage of ripened (filled) grains, number of tillers per area, percentage of productive tillers, grain yield per area at 14% moisture and thousand grain weight (TGVV).
The data in Tables 1 to 3 represent averages of the results from all eleven independent field trials, expressed as a percentage compared to the untreated control. The percentage increase or decrease was calculated for each trial relative to the untreated control for that trial, prior to calculating the mean percentage change across all 11 trials.

rice plants [2] = assay: Further field trials 2016, rice variety ADT45 (7 trials); type: in vivo, Oryza sativa L.; conditions: 10 g AI/ha; for Average yield increase compared to UTC (%): 7 trials 2016; for Yield at 14% MC (kg/ha): 7 trials 2016, mean daily min 25.13° C., max 34.13° C., UTC 6512
Description: Rice (Oryza sativa L.) of the local varieties ADT43, ADT45 and NK5251 were mechanically transplanted at four plants per hill with a plant spacing of 16 cm and a row spacing of 30 cm. All trials were performed in good level of water management. Fertilizer was applied in accordance with the best local practice across the trial area. Commercial treated seeds (no neonicotinoids as seed treatments) were used. Weed control was according to the best local practice in order to provide excellent weed control. Foliar fungicides and insecticides were applied according to common practice (no products that contain neonicotinoids or strobilurins). The trial design was a randomized bloc design. Plot size was 40 m^2 (4 m width [12 rows] by 10 m row length). Each trial had four replicates. In total, eleven trials were conducted. The compound of formula (Ia) was applied at a rate of 10 g ai/ha with small-plot hand-held boom sprayer. Application of the compound was as broadcast foliar spray in close proximity to leaf/canopy surface (25-40 cm distance from the crop). The used spray volumes were between 250 L/ha and 500 L/ha. Application was done either at panicle initiation (BBCH 30), at panicle formation (BBCH 32), at spikelet differentiation (BBCH 35), at meiosis (BBCH 39) or at heading (BBCH 51). In some experiments, the compound was applied twice (2×10 g ai/ha) at consecutive growth stages (i.e., BBCH 30+32, BBCH 32+35, BBCH 35+39, and BBCH 39+51). Tolerance to heat stress was assessed by measuring the following yield components: number of panicles per area, number of grains per panicle, percentage of ripened (filled) grains, number of tillers per area, percentage of productive tillers, grain yield per area at 14% moisture and thousand grain weight (TGVV). Further trials were conducted in the Tamil Nadu rice production area (India) in 2016 using the protocol as described above using rice variety ADT45, with treatment timings of panicle initiation (BBCH 30), panicle formation (BBCH 32), spikelet differentiation (BBCH 35) and meiosis (BBCH 39) only. The compound of formula (Ia) was applied at a rate of 10 g Al/ha. Grain yield was measured at 14% moisture content (MC).

[3] = BBCH 30 at application, 10 g ai/ha foliar spray, mean of 11 trials, mean daily min 25.1° C., max 35.5° C.
[4] = BBCH 32 at application, 10 g ai/ha foliar spray, mean of 11 trials, mean daily min 25.1° C., max 35.5° C.
[5] = BBCH 35 at application, 10 g ai/ha foliar spray, mean of 11 trials, mean daily min 25.1° C., max 35.5° C.
[6] = BBCH 39 at application, 10 g ai/ha foliar spray, mean of 11 trials, mean daily min 25.1° C., max 35.5° C.
[7] = BBCH 51 at application, 10 g ai/ha foliar spray, mean of 11 trials, mean daily min 25.1° C., max 35.5° C.
[8] = maximum air temperature 35.1-36 ° C. during five days after application, applied between BBCH 30 and BBCH 51, 10 g ai/ha
[9] = maximum air temperature 36.1-37 ° C. during five days after application, applied between BBCH 30 and BBCH 51, 10 g ai/ha
[10] = maximum air temperature >37 ° C. during five days after application, applied between BBCH 30 and BBCH 51, 10 g ai/ha
[11] = maximum air temperature ≤35 ° C. during five days after application, applied between BBCH 30 and BBCH 51, 10 g ai/ha

## COc1cccc(Nc2nc(F)nc3[nH]cnc23)c1 [formula (Ia)]
Rice plants [1]; [3]
  Empty spikelets (% of UTC): −7.5 % of UTC
  TGW (% of UTC), thousand grain weight: +2.5 % of UTC
Rice plants [1]; BBCH 30 at application, 10 g ai/ha foliar spray, mean of 11 trials, mean daily min 25.1° C., max 35.5° C. during 14 days after application
  Grain yield (% of UTC): +6.0 % of UTC
Rice plants [1]; BBCH 30 at application, maximum air temperature >36° C. during five days after application, 10 g ai/ha
  grain yield (as percent change compared to untreated controls): +7.5%
Rice plants [1]; BBCH 30 at application, maximum air temperature ≤36° C. during five days after application, 10 g ai/ha
  grain yield (as percent change compared to untreated controls): +1.6%
Rice plants [1]; [4]
  Empty spikelets (% of UTC): −9.3 % of UTC
  Grain yield (% of UTC): +7.4 % of UTC
  TGW (% of UTC), thousand grain weight: +2.2 % of UTC
Rice plants [1]; BBCH 32 at application, maximum air temperature >36° C. during five days after application, 10 g ai/ha
  grain yield (as percent change compared to untreated controls): +9.0%
Rice plants [1]; BBCH 32 at application, maximum air temperature ≤36° C. during five days after application, 10 g ai/ha
  grain yield (as percent change compared to untreated controls): +0.7%
Rice plants [1]; [5]
  Empty spikelets (% of UTC): −3.8 % of UTC
  Grain yield (% of UTC): +4.7 % of UTC
  TGW (% of UTC), thousand grain weight: +1.8 % of UTC
Rice plants [1]; BBCH 35 at application, maximum air temperature >36° C. during five days after application, 10 g ai/ha
  grain yield (as percent change compared to untreated controls): +5.4%
Rice plants [1]; BBCH 35 at application, maximum air temperature ≤36° C. during five days after application, 10 g ai/ha
  grain yield (as percent change compared to untreated controls): +1.8%
Rice plants [1]; [6]
  Empty spikelets (% of UTC): −6.6 % of UTC
  Grain yield (% of UTC): +4.9 % of UTC
  TGW (% of UTC), thousand grain weight: +1.6 % of UTC
Rice plants [1]; BBCH 39 at application, maximum air temperature >36° C. during five days after application, 10 g ai/ha
  grain yield (as percent change compared to untreated controls): +5.1%
Rice plants [1]; BBCH 39 at application, maximum air temperature ≤36° C. during five days after application, 10 g ai/ha
  grain yield (as percent change compared to untreated controls): +2.6%
Rice plants [1]; [7]
  Empty spikelets (% of UTC): −3.5 % of UTC
  Grain yield (% of UTC): +2.8 % of UTC
  TGW (% of UTC), thousand grain weight: +2.0 % of UTC
Rice plants [1]; BBCH 51 at application, maximum air temperature >36° C. during five days after application, 10 g ai/ha
  grain yield (as percent change compared to untreated controls): +3.6%
Rice plants [1]; BBCH 51 at application, maximum air temperature ≤36° C. during five days after application, 10 g ai/ha
  grain yield (as percent change compared to untreated controls): −0.7%
Rice plants [1]; applied between BBCH 30 (panicle initiation) and BBCH 51 (heading)
  grain yield, effect in words: an increase of grain yield was achieved
Rice plants [1]; daily maximum temperature above 36° C. at least one day after application but within 5 days after application
  effect of treatment on rice grain yield, in words: clear beneficial effect
Rice plants [1]; [8]
  Grain yield (% of UTC): +1.1 % of UTC
  TGW (% of UTC): +2.3 % of UTC
Rice plants [1]; [9]
  Grain yield (% of UTC): +5.5 % of UTC
  TGW (% of UTC): +2.2 % of UTC
Rice plants [1]; [10]
  Grain yield (% of UTC): +6.6 % of UTC
  TGW (% of UTC): +1.8 % of UTC
Rice plants [1]; [11]
  Grain yield (% of UTC): +0.9 % of UTC
  TGW (% of UTC): +1.4 % of UTC
Rice plants [1]; plants at growth stages from panicle initiation (BBCH 30) to heading (BBCH 51) at the time of treatment
  heat stress protection, in words: heat stress protection was achieved
Rice plants [2]; BBCH 30 at application
  Average yield increase compared to UTC (%): +3.5%
  Yield at 14% MC (kg/ha): 6741 kg/ha
Rice plants [2]; BBCH 32 at application
  Average yield increase compared to UTC (%): +4.7%
  Yield at 14% MC (kg/ha): 6820 kg/ha
Rice plants [2]; BBCH 35 at application
  Average yield increase compared to UTC (%): +6.4%
  Yield at 14% MC (kg/ha): 6931 kg/ha
Rice plants [2]; BBCH 39 at application
  Average yield increase compared to UTC (%): +3.6%
  Yield at 14% MC (kg/ha): 6757 kg/ha
